Assay results reported in ChEMBL document CHEMBL1201862, “PubChem BioAssay data set” (2004).
Activity calls are given as the source filed them.

Columns and labels:
[1] = cytotoxicity toward DRD oncogenic fibroblasts, dose response, cell-based, non-viral oncogenic, luminescence (AID 1934); type: functional; settings: Homo sapiens
BJ [2] = test: cytotoxicity toward BJ-TERT fibroblasts, dose response, cell-based, RAS-independent, luminescence (AID 1933); type: functional; settings: Homo sapiens
BJ [3] = test: cells; type: functional, cell-based; settings: Homo sapiens
BJ [4] = test: cytotoxicity toward BJ-TERT-LT-ST fibroblasts, dose response, cell-based, RAS-independent, luminescence (AID 1935); type: functional; settings: Homo sapiens;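 note: BJ fibroblasts immortalized with TERT plus LT and ST oncogenes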
[5] = inhibitors of intracellular T. cruzi replication, confirmation, NIH3T3 host cells, beta-gal luminescence (AID 2044); type: functional, cell-based;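 note: intracellular parasites grown in NIH/3T3 mouse fibroblasts as host cells; luminescent beta-galactosidase reporter signal from transgenic T. cruzi replicating inside host cells; inhibitors lower the luminescence signal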
[6] = cytotoxicity toward NIH3T3 fibroblasts, dose response, counter-screen, cell-based, ATP luminescence, mouse fibroblasts (AID 2010); type: functional;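 note: cells exposed to compound for about 90 hours before reading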
[7] = microbe, parasite or virus in culture; type: functional; settings: Mycobacterium tuberculosis
[8] = HEp-2 cell cytotoxicity, dose response, cytotoxicity control for RSV inhibitor project, HTS (AID 2410); type: functional; settings: human respiratory syncytial virus
[9] = biological target: T1, Rac GTPase-activating protein 1 (Homo sapiens, UniProt Q9H0H5); test: MgcRacGAP GTPase-activating activity inhibitors, confirmation, biochemical, ADP Hunter fluorescence, primary and confirmatory (AID 624330); type: functional
T1 sequence (Q9H0H5 whole entry): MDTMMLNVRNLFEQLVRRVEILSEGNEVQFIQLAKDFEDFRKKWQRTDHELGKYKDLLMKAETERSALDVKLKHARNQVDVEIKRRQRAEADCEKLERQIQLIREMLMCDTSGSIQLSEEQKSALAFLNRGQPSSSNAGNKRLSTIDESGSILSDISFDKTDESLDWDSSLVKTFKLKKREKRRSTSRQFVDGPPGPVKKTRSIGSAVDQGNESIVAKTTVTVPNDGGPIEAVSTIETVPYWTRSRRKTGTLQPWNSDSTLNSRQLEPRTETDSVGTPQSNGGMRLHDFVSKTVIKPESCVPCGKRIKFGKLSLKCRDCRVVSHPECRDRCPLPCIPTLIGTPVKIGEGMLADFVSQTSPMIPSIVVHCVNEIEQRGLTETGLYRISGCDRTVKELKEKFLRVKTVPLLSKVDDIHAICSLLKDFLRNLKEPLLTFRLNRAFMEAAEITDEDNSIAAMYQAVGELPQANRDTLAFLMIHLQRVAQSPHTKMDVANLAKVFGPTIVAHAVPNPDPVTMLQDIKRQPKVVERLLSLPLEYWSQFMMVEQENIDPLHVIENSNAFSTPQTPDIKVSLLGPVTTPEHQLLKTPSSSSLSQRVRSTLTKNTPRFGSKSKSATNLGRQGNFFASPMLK

[10] = biological target: T2, Heat shock factor protein 1 (Mus musculus, UniProt P38532); test: HSF1 potentiators in luciferase reporter cells, confirmation, cell-based, NIH3T3, luminescence, dose retest (AID 435004); type: functional;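 note: stress induced by proteasome inhibitor MG132 added 30 min after compound; luciferase reporter driven by HSF1 response element in NIH3T3 cells; actives raise luminescence as potentiators of the MG132 stress response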
T2 sequence (P38532 whole entry): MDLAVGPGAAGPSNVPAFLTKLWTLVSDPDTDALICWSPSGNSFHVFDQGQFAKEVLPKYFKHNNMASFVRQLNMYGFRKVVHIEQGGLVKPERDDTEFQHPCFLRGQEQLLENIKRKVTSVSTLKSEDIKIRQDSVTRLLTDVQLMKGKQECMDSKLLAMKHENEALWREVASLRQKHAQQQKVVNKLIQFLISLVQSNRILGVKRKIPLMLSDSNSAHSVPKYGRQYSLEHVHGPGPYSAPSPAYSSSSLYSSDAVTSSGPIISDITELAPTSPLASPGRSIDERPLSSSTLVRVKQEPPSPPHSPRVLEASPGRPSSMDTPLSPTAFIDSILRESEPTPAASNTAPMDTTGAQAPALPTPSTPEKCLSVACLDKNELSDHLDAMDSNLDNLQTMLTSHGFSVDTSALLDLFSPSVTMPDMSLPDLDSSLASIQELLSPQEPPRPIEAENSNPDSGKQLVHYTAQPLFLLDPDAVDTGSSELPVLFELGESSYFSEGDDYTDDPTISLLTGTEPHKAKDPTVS

INS1 = test: beta cell apoptosis inhibitors, cytokine rescue, dose response, luminescence, retest (AID 449756); type: functional, cell-based; settings: Rattus norvegicus;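 note: cell death triggered by IL-1 beta plus TNF-alpha plus IFN-gamma mixture; protective hits raise ATP signal compared with cytokine alone wells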
cells = type: functional
[11] = tested on: Streptococcus sp. 'group A'; test: growth inhibition of control SK(-) GAS strain, dose response, counter-screen for streptokinase expression inhibitor project, luminescence, kanamycin, BacTiterGlo, confirmation (AID 1900); type: functional, organism-based
Streptococcus = test: Group A Streptococcus viability loss, dose response, counter-screen for streptokinase expression inhibitor project, luminescence, BacTiterGlo (AID 1915); type: functional, organism-based;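 note: potency for reduction of bacterial viability or growth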
Streptokinase A = biological target: T3, Streptokinase A (Streptococcus pyogenes serotype M1, UniProt P10520); test: S. pyogenes streptokinase expression inhibitors, potency, dose response, plasminogen activation absorbance, OD405 (AID 1914); type: functional, Streptococcus pyogenes M1 GAS;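 note: secreted streptokinase activity via plasminogen activation per viability signal from cell pellet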
T3 sequence (P10520 whole entry): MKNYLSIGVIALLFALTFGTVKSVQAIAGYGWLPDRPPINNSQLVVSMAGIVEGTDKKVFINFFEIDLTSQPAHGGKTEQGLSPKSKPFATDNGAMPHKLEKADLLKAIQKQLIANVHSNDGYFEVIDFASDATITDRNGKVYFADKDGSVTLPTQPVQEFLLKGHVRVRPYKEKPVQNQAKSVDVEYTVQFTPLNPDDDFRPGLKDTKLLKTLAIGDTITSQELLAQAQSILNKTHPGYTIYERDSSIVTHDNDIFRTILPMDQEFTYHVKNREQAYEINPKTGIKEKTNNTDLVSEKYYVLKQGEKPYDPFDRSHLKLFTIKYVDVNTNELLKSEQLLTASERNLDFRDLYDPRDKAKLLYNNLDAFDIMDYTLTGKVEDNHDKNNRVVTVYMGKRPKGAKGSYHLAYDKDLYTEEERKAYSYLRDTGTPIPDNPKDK

[12] = biological target: T4, Corticotropin-releasing factor receptor 2/Corticotropin-releasing factor-binding protein (Homo sapiens, UniProt P24387+Q13324); test: activators of CRF receptor 2 with binding protein – uHTS hits, confirmation (AID 602473); type: functional; settings: read-out: EC50_Mean
T4 sequence (Q13324 whole entry): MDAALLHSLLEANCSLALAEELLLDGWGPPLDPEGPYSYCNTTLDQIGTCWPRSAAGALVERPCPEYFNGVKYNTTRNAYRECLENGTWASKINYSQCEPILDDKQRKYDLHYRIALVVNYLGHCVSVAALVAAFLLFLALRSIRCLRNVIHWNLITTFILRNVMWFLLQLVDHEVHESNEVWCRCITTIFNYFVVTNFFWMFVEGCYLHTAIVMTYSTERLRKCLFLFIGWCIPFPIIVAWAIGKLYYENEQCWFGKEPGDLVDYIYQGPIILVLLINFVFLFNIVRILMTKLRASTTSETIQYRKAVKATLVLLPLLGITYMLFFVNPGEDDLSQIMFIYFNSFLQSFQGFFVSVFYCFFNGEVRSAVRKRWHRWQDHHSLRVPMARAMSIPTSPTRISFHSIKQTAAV
T4 sequence (P24387 whole entry): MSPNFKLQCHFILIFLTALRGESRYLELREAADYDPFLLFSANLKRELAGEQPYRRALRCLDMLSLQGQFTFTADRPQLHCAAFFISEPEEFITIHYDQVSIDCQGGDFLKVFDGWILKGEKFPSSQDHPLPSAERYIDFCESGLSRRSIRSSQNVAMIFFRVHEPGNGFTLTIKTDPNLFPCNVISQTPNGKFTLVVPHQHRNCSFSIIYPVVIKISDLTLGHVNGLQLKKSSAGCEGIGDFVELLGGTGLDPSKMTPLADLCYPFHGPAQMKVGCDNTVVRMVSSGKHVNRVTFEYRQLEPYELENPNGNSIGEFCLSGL

Cytochrome P450 3A4 = Cytochrome P450 3A4 (Homo sapiens, UniProt P08684);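 note: CYP3A4 tested as one member of a cytochrome P450 panel screen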
[13] = Luminescence Cell-Based Dose Retest to Confirm Inhibitors of Cancer Stem Cells. [Related pubchem assays (depositor defined):AID2717, AID2721]; type: functional; settings: Homo sapiens
[14] = P. falciparum Dd2 growth inhibitors, dose response, SYBR Green, cherry-picked samples (AID 1159567); type: functional, cell-based

Cytochrome P450 3A4, sequence (P08684 whole entry): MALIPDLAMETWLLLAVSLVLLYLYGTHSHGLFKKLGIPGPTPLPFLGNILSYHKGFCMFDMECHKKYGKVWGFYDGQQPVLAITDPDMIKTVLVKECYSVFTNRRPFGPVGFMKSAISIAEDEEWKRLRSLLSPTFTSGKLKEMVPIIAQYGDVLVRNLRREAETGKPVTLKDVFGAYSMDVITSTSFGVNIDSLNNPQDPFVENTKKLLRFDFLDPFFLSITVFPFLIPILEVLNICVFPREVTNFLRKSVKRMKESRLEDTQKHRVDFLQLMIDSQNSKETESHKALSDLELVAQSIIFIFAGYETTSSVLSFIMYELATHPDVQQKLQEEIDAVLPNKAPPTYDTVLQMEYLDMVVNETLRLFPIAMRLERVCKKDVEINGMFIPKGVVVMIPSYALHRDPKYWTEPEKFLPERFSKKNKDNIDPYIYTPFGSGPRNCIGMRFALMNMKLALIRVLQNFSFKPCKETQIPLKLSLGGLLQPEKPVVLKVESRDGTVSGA

COc1ccc2nc(-c3cccc(F)c3)cc(O)c2c1
EC50 [1]: 2.39 µM (inconclusive) | EC50 (BJ [2]): 1.24 µM (active) | EC50 (BJ [3]): 1.41 µM (inconclusive) | EC50 (BJ [4]): 0.885 µM (active)

COc1cc(OC)cc(-c2cc3nc(C)c(CCC(=O)NC(C)CCc4ccco4)c(C)n3n2)c1 (centres undefined)
EC50 [5]: 0.45 µM (active) | EC50 [6]: > 30 µM (not active) | CC50 [7]: 31.8 µM (active)

CCCCCCC(=O)Nc1nc(C)c(-c2csc(Nc3ccccc3OC)n2)s1
CC50 [8]: 15 µM (active)

COc1cccc(C(=O)N2CCN(C3CCCCC3)CC2)c1
IC50 [9]: 142 µM (active)

Cc1ccc(NC(=O)CSc2nc3ccccc3c(=O)n2CCCN2CCCCC2)cc1Cl
EC50 [5]: 2.29 µM (active) | EC50 [6]: > 60 µM (inconclusive) | CC50 [7]: 14.4 µM (active)

COc1cc2nc(NC(=O)c3ccc(Cl)cc3)sc(=O)c2cc1OC
EC50 [10]: > 260 µM (inactive)

O=C(NCCN1CCN(c2cccc(Cl)c2)CC1)c1ccc(CSc2nc3cc[nH]cc-3n2)cc1
CC50 [7]: > 40 µM (active)

O=C(Nc1cccc(-c2nnc(-c3ccco3)o2)c1)C(c1ccccc1)c1ccccc1
CC50 [8]: 15.2 µM (active)

Cc1ccc2oc(C(Cl)(Cl)Cl)cc(=O)c2c1
EC50 [10]: 27.9 µM (active)

CC(=O)c1ccc(NC(S)=NC(C)c2ccc(Cl)cc2Cl)cc1 (centres undefined)
AC50 (INS1): 15.6 µM (active)

O=[N+]([O-])c1ncccc1Oc1nc(-c2cccnc2)nc2ccccc12
IC50 (cells): 1.15 µM (active) | CC50 [7]: > 40 µM (active)

CCOC(=O)c1nnc(-c2ccc(C)cc2)nc1Oc1ccccc1Cl
CC50 [8]: 21.3 µM (active)

Cc1nc(C)c(-c2csc(NCCc3ccccc3)n2)s1
AC50 (INS1): 18 µM (active)

Cc1ccc(/C=C/C(=O)c2ccc([N+](=O)[O-])o2)cc1
EC50 [11]: 4.07 µM (active) | AC50 (INS1): 5.65 µM (active) | EC50 (Streptococcus): 14.2 µM (active) | EC50 (Streptokinase A): 8.82 µM (active)

CC(=O)Nc1cccc(C(=O)/C=C/c2ccc(/C=C/C(=O)c3cccc(NC(C)=O)c3)cc2)c1
EC50 [1]: 5.45 µM (inconclusive) | EC50 (BJ [2]): 5.89 µM (inconclusive) | EC50 (BJ [3]): > 150 µM (not active) | EC50 (BJ [4]): 3.93 µM (inconclusive)

CCOC(=O)c1nnc2cc(-c3ccccc3)nn2c1C
CC50 [8]: > 50 µM (active)

Cc1nn(-c2ccccc2)c2c1C1(C(=O)Nc3ccccc31)N1C(=N2)Sc2ccccc21 (centres undefined)
CC50 [8]: 18.4 µM (active)

O=C(Nc1nnc(-c2ccccc2)o1)c1cc(Cl)sc1Cl
EC50 [12]: > 53 µM (inactive)

COc1cc(CNc2ccc(N3CCN(C(C)=O)CC3)cc2)ccc1OCc1ccccc1
IC50 [9]: 12.8 µM (active)

COc1ccc(-c2cc(C(F)(F)F)nc(SCc3cccc(C(=O)O)c3)n2)cc1
AC50 (Cytochrome P450 3A4): 14.1 µM (inconclusive) | CC50 [8]: 22.2 µM (active)

COc1ccc(-c2ccc3c(c2)S(=O)(=O)c2cccc(C(=O)NCCOc4ccccc4Cl)c2C3=O)cc1OC
AC50 (INS1): 3.41 µM (active)

O=C(c1cn(CC(=O)N2CCCCC2)c2ccccc12)C1CC1
EC50 [10]: > 260 µM (inactive)

Cc1ccc(C)c(S(=O)(=O)N2CCN(C(=O)c3ccccc3Cc3ccccc3)CC2)c1
CC50 [8]: 22.6 µM (active)

CN(C)/C=C1/C=C(c2ccccc2)OC1=O
IC50 [9]: 52.1 µM (active)

COc1ccc2c(c1)CCc1c(C(=O)N3CC4(C)CC3CC(C)(C)C4)noc1-2 (centres undefined)
EC50 [10]: > 260 µM (inactive) | AC50 [13]: < 0.16 µM (active)

Cc1ccc(C)c(OCC(O)CN2CCC(C)CC2)c1C (centres undefined)
IC50 [9]: 225 µM (active)

CCCCn1c(N)c(N(CC(C)C)C(=O)Cc2ccc(S(=O)(=O)N3CCOCC3)s2)c(=O)[nH]c1=O
EC50 [12]: 6.11 µM (active)

COC(=O)/C(=C\Nc1ccc(Cl)cc1Cl)NC(=O)c1ccc(OC)cc1
EC50 [1]: 4.31 µM (active) | EC50 (BJ [2]): 10 µM (inconclusive) | EC50 (BJ [3]): 57.7 µM (active) | EC50 (BJ [4]): 15.3 µM (inconclusive)

C[C@H]1CN([C@@H](C)CO)C(=O)CCCn2nncc2CO[C@@H]1CN(C)C(=O)Nc1ccc(N2CCCCC2)cc1
AC50 [14]: > 39 µM (inactive)

CCCNC(=O)c1cc2c(c(-c3cccc(-c4cc5ccccc5o4)c3)n1)[C@@H](CCO)N(C(=O)NC(C)C)C2
AC50 [14]: 4.15 µM (active)

COc1ccc(CNC(=O)c2cc3c(c(-c4cccc(-c5cccc(C#N)c5)c4)n2)[C@H](CCO)N([S@@+]([O-])C(C)(C)C)C3)cc1
AC50 [14]: 3.46 µM (active)

CCOc1cc(/C=N/NC(=O)CN2CCCCC2)ccc1O
IC50 [9]: 50.4 µM (active)

CC(=N)/C(C#N)=C(/O)CSc1nnc(-c2ccccc2Br)o1
EC50 [10]: > 260 µM (inactive)

Nc1ccc2nc(N)sc2c1
IC50 [9]: 9.57 µM (active)

COc1ccc(C#Cc2cccc(-c3nc(C(=O)N[C@@H]4CCN(Cc5ccccc5)C4)cc4c3[C@@H](CCO)N([S+]([O-])C(C)(C)C)C4)c2)cc1OC (some centres undefined)
AC50 [14]: 3.58 µM (active)

COc1ccc2c3c(n(C)c2c1)[C@H](CO)N(C(=O)Nc1ccc(F)cc1)CC31CN(C(=O)NC2CCCC2)C1
AC50 [14]: 5.8 µM (active)

CCS(=O)(=O)N1CCCCN2[C@H](CO)[C@H](c3ccc(C#Cc4ccccc4OC)cc3)[C@@H]2C1
AC50 [14]: 8.09 µM (active)

COc1ccc(C#Cc2ccc3c(c2)[C@H]2[C@H](CCN2C(=O)C2CCC2)[C@@H](CO)N3)cc1
AC50 [14]: 3.22 µM (active)

CC(C)[C@H](CO)N(Cc1cccc(F)c1)c1nc(Nc2cccc(Cl)c2)c2ncn(C(C)C)c2n1
CC50 [7]: > 40 µM (active)

O=c1cc(-c2ccccc2)oc2ccccc12 [FLAVONE]
CC50 [8]: 34.2 µM (active)
